Results as given in patent US20240335470A1, “CAR T CELLS FOR TREATING CD19+, CD20+ OR CD22+ TUMORS OR B-CELL DERIVED AUTO-IMMUNE DISEASES” (OSPEDALE PEDIATRICO BAMBINO GESU', priority 2020, published 2024).

Columns and labels:
iC9.CAR.CD19 DAUDI cells = test: In vitro activation of iC9 by AP1903, DAUDI (FACS, qPCR); assay type: cell-based, human; conditions: 20 nM AP1903
Procedure: (§1) To induce the in vitro activation of iC9, cells were treated once with 20 nM of AP1903 (Medchemexpress, Cat. HY-16046). The percentage of CAR+ cells after the AP1903 treatment was evaluated by FACS at the indicated time points. […] Control cohort was infused with sterile PBS as vehicle solution. Tumor was monitored by weekly IVIS imaging analysis.
(§2) Flow cytometry analysis was performed to determine cell surface antigens expression; monoclonal antibodies for CD45, CD3, CD19, CD22, CD10, CD34 (all from Becton Dickinson, USA) were combined with different fluorescence according to needs. iC9.CAR.CD19 expression was detected using a mAb directed to hCD34 epitope (anti-CD34 QBend-10 PE from R&D System, USA), or CD19 CAR Detection Reagent (Biotin; Miltenyi, Germany). Flow-cytometry analysis was performed using a BD LSRFortessa X-20 cytometer (BD Biosciences, USA) and analyzed by FACSDiva software (BD Biosciences, USA). FACS-sorting on CAR-transduced tumor cell lines was performed on a FACSAria (BD Biosciences, USA).
(§3) The average of vector copy number (VCN) per cell was determined by real-time PCR, using a TaqMan probe designed on the retroviral construct using the Primer Express® software (Applied Biosystems) and reported in Table 2 (iC9 Probe and primers iC9).
(§4) For VCN, each sample was analyzed in triplicate and the average of threshold cycles was used to quantify DNA copies in relation to the mean values of negative control samples. Relative gene expression was calculated using the house-keeping gene ACT1N1 (Hs_02249516 ACT1N1, ThermoFisher Scientific) qPCR was performed employing QuantStudio 12K Flex Real-Time PCR System (ThermoFisher Scientific). For IG/TR PCR-MRD of the DPs, each MRD value was calculated from the corresponding standard curve, and the results were normalized for values of the housekeeping Albumin gene. […]

[1] = system: DAUDI, RAJI and NALM-6 iC9.CAR+ cells; test: In vitro activation of iC9 by AP1903, all cellular models (FACS, VCN); assay type: cell-based, human
Procedure: as §1, §2, §3, §4

[2] = system: iC9.CAR.CD19 NALM-6 cells; test: In vitro activation of iC9 by AP1903, NALM-6 (qPCR); assay type: cell-based, human; conditions: 20 nM AP1903
Procedure: as §1, §3, §4

iC9.CAR.CD19 RAJI cells = test: In vitro activation of iC9 by AP1903, RAJI (qPCR); assay type: cell-based, human; conditions: 20 nM AP1903
Procedure: as §1, §3, §4

iC9-T cells = conditions: patients with GVHD after haploidentical iC9-T cells infusion; cited from earlier work
[3] = system: iC9.CAR.CD19LH-DAUDI cells; test: NSG xenograft, iC9.CAR.CD19LH-DAUDI, iC9 activation by AP1903; assay type: in vivo, NSG mice
Procedure: Schematic representation of the experimental design, with iC9.CAR.CD19LH positive FF-Luciferase positive DAUDI cells infused at day-3. At Day 0, mice were evaluated for leukemia engraftment and treated with 100 μg/mouse of AP1903 from day 0 to day 28. (B) Bioluminescence images of each control untreated mouse and each AP1903 treated mouse. Mice were monitored for more than 30 days after AP1903 withdrawal (C) Bioluminescence values over time for each treated mouse in the two cohorts, un-treated (black lines) or AP1903 treated (dotted line) mice. (D) Kaplan-Meier survival curve analysis of leukaemia-bearing mice untreated (black line) or AP1903 treated (blue line). ****p-value=<0.00001. The only mouse (#20) showing a persisting positive signal at IVIS analysis after AP1903 administration was sacrificed at day 35 together with a negative control (#11) and a positive control (mouse not exposed to AP1903 administration, #6), to characterize the leukemia cells.
as §1

Which results are given for CC[C@H](C(=O)N1CCCC[C@H]1C(=O)O[C@H](CCc1ccc(OC)c(OC)c1)c1cccc(OCC(=O)NCCNC(=O)COc2cccc([C@@H](CCc3ccc(OC)c(OC)c3)OC(=O)[C@@H]3CCCCN3C(=O)[C@@H](CC)c3cc(OC)c(OC)c(OC)c3)c2)c1)c1cc(OC)c(OC)c(OC)c1 [AP1903]?
re-expansion of iC9.CAR+ leukemic cells on prolonged culture (iC9.CAR.CD19 DAUDI cells; FIG. 8E): not associated to re-expansion; MFI of CAR expression in AP1903 treated cells (iC9.CAR.CD19 DAUDI cells; threshold value, FIG. 10E): 142±22; transgene (TG) positivity in remaining cells after AP1903 exposure (qPCR) (iC9.CAR.CD19 DAUDI cells; DAUDI cells): 22.8%; percentage of CAR+ leukemic cells ([1]; 20 nM AP1903, 6 hours): significant reduction in the percentage of CAR+ leukemic cells; CD19 antigen detection on cells remaining after AP1903 ([1]; 20 nM AP1903, FIG. 8E, 10B, 10D): completed re-established detection of CD19 antigen; average of VCN threshold in AP1903 treated B cells ([1]; across all the considered cellular models, 20 nM, FIG. 10F): 0.1±0.1; transgene (TG) positivity in remaining cells after AP1903 exposure (qPCR) [2]: 0.6%; transgene (TG) positivity in remaining cells after AP1903 exposure (qPCR) (iC9.CAR.CD19 RAJI cells): 18.6%; residual iC9-T cells after AP1903 administration (iC9-T cells): 1%; complete CAR+ leukemia eradication, number of mice ([3]; AP1903 100 μg/mouse i.p. day 1 to day 28): 9 out of 10; survival of treated mice ([3]; AP1903 100 μg/mouse i.p., even after drug suspension, to day 63): 100%; leukemia recurrence ([3]; until day 63 (endpoint of the experiment)): no mice showing leukemia recurrence
